Measured values published in US5747456A, “Continuous low-dose administration of parathyroid hormone or its agonist” (Beth Israel Deaconess Medical Center, priority 1996, dated 1998).

Columns and labels:
bone growth = assay: Continuous infusion of hPTH1-34 in post-menopausal women with osteoporosis (Example 5); assay type: in vivo, human; details: continuous infusion 25 to 400 units/24 hrs by infusion pump, twelve months
Experimental: The anabolic efficacy of the PTH/PTHrP agonists are tested in humans (Review in Dempster D. W., et al., Endocrine Rev., 1993, 14, 690-709). To determine if continuous administration of hPTH1-34 or its agonist is effective in promoting bone growth in humans, 30 post-menopausal women with established osteoporosis based on bone-density measurements are selected. A double-blind, placebo-controlled, randomized experiment is conducted where two groups of 15 women each are either placed on placebo treatment or continuous infusion of a defined dose of hPTH1-34 (25 units to 400 units/24 hrs) using an infusion pump.
The patients prior to the study are subject to the following: complete health and physical examination, evaluation of the nutritional status (particularly of calcium intake and serum calcium), full analysis of biomarkers for bone-turnover (Riis, B. J., Amer. J. Med. 1993, 95 [Suppl 5A], 17s-21s; Delmas, P. D., Amer. J. Med., […], 91 [Suppl 5B], 59s-63s), radiology, bone mass measurements of vertebral and axial sites (Gerant, H. K., et al., Amer. J. Med., 1991, 91 [Suppl 5B], 49s-53s; Wasnich, R. D., Amer J Med, 1991, 91 [Suppl 5B], 54s-58s) and bone biopsy, to establish the baseline parameters for each individual. […]

osteoblast activity = details: intravenous infusion 0.55 U/kg/hr continuously for 24 hours, cited from earlier work

## hPTH1-34: synthetic amino-terminal fragment of PTH1-84 (human parathyroid hormone)
Bone growth
  bone mass measurements and bone biopsy: clear indication of bone growth
Osteoblast activity; humans
  blood levels of ionized calcium: increase
Osteoblast activity; within 16 hours of infusion, six osteoporotic and two normal subjects
  serum levels of collagen type I: decreased
